Read-outs that look alike come from different tables or passages of the source.
Columns and labels:
[1] = system: HL-60 promyelocytic leukemia cells; assay: Inhibition of proliferation of HL-60 cells; assay type: cell-based; conditions: Homo sapiens, HL-60, 192 h; for IC50: read-out: ID50 (concentration which reduced the cell number by 50%)
Protocol: (§1) Inhibition of Cell Proliferation and Induction of Cell Differentiation
(§2) Cultures of HL-60 promyelocytic leukemia cells were established in the absence (control) and presence of various concentrations of test compounds. After an 8-day incubation period, the cultures were evaluated for proliferation of tumor cells, cell viability, and cellular differentiation. Proliferation was assessed by directly enumerating the increased number of tumor cells resulting from cell division during incubation. Viability was assessed by dye exclusion technique to learn whether any of the compounds were lethal to the cultured HL-60 cells. Cellular differentiation was evaluated by determining the number of cells which had acquired the enzymes necessary to support a respiratory burst, a characteristic of mature macrophages and granulocytes.
(§3) Tissue culture medium used in these experiments was RPMI-1640 supplemented to 10% v/v with heat-inactivated fetal bovine serum and to an additional 1.6 mM with L-glutamine.
(§4) Test compounds were dissolved in sufficient ethanol to yield stock solutions of 1×10^-2 or 1×10^-3 molar. Reduced lighting was used when working with compounds and stock solutions were stored in the dark at -20° C. in an argon atmosphere. Compounds were diluted in tissue culture medium and added to flasks containing HL-60 cells to achieve the final concentration described in each test.
(§5) The HL-60 tumor cell line was originally derived from a patient with promyelocytic leukemia and was obtained from the American Type Culture Collection. The cells were maintained in liquid culture by serial passage twice weekly in tissue culture medium. […] In any test, three replicate flasks were incubated without compound (control) or in the presence of varying concentrations of test compound. Ethanol, used as the vehicle, was kept constant in all dilutions in each test and had no effect on cell proliferation, viability or cell differentiation at the concentrations used (≤0.1%). After 8 days of incubation at 37° in a humidified atmosphere of 5% CO2 in air, cultures were evaluated for tumor cell proliferation, viability and differentiation.
Quantitation of proliferation was done by enumerating the number of HL-60 cells in each individual flask (3 flasks per experimental point) using an Elzone electronic particle counter. Results are shown as the percent reduction of cell number calculated for each concentration tested according to the formula: [formula] The results are also expressed as the concentration which reduced the cell number by 50% (ID50).

[2] = system: intestinal calcium absorption (duodenum); assay: Stimulation of Intestinal Calcium Absorption in Rat (intestinal 45Ca transport, everted gut sac); conditions: 12.5 ng/rat, intrajugular, 18 h
[3] = target: T1, 1,25-(OH)2 D3 receptors (chick intestine) (Gallus gallus, UniProt O42392); assay: Competitive Binding to 1,25-(OH)2 D3 Intestine Receptors, chick; conditions: a/b×100 from amounts displacing 50% of 1,25-(OH)2[3H]D3
T1 construct: receptor prepared from intestine of chick, rat and calf; from tissue; host or cells: chick proximal small-intestine mucosa, cytosol, 35% ammonium sulphate precipitate
T1 sequence (O42392 1-451): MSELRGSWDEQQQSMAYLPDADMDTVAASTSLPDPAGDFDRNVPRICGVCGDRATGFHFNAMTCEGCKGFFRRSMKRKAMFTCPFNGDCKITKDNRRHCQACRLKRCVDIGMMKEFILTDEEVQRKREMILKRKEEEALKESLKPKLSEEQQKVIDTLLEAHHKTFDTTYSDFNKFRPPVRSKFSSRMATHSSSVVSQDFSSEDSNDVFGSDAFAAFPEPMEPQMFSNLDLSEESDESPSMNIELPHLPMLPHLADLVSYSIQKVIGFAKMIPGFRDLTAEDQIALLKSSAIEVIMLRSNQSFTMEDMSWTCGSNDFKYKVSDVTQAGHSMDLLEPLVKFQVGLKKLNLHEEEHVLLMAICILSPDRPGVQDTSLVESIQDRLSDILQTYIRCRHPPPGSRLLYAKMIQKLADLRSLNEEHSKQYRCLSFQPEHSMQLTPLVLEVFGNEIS
Protocol: (§6) The ability of vitamin D3 metabolites to compete for 1,25-(OH)[^3 H]D3 receptor binding sites was evaluated with receptor prepared from intestine of chick, rat and calf. […] Mucosa was collected and washed three times with 10 volumes of cold KTED buffer. The washed mucosa was homogenized in KTED buffer (20% w/v) using a Polytron Pt20 tissue disruptor. Cytosol was prepared by centrifugation of the homogenized mucosa at 300,000×g for 1 hour. […] The ammonium sulphate treated cytosol was centrifuged at 20,000×g for 10 minutes. The supernatant was discarded and the pellet lyophilized and stored at […] Prior to binding assay the pellet was resuspended in cold binding assay buffer containing 150 mM KCl, 50 mM NaPO4, 1.5 mM EDTA and 5 mM dithiothreitol.

[4] = system: bone calcium mobilization; assay: Bone Calcium Mobilization in Rat (plasma Ca increase); assay type: in vivo; conditions: 12.5 ng/rat, intrajugular, 18 h
Protocol: Controls received carrier alone. Bone Ca resorption (BCR) was estimated by measuring the blood Ca increase in the treated rats. Blood was collected in heparinized tubes and centrifuged. The resulting plasma was measured for calcium concentration by atomic absorption spectroscopy. Since rats were fed a diet essentially devoid of Ca, plasma Ca increases reflected mobilization of Ca from bone, not intestinal Ca absorption.

[5] = target: T2, 1,25-(OH)2 D3 receptors (calf intestine) (Bos taurus, UniProt Q28037); assay: Competitive Binding to 1,25-(OH)2 D3 Intestine Receptors, calf; conditions: a/b×100 from amounts displacing 50% of 1,25-(OH)2[3H]D3
T2 construct: receptor prepared from intestine of chick, rat and calf; from tissue; host or cells: calf proximal small-intestine mucosa, cytosol, 35% ammonium sulphate precipitate
T2 sequence (Q28037 1-426): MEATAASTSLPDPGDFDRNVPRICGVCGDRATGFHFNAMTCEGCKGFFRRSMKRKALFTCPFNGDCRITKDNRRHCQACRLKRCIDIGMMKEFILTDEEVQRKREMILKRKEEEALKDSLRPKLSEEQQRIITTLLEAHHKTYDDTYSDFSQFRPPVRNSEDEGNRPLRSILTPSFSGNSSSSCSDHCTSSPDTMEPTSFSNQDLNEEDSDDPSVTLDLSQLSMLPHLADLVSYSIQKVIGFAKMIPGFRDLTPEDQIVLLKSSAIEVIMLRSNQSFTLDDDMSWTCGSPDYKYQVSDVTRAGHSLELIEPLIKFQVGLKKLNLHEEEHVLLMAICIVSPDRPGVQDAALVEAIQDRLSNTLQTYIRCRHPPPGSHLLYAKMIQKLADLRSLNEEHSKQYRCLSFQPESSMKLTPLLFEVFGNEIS
Protocol: as §6

[6] = system: HL-60 promyelocytic leukemia cells; assay: Induction of differentiation of HL-60 cells (NBT reduction); assay type: cell-based, human; conditions: for EC50: Homo sapiens, HL-60, 192 h, read-out: ED50 (concentration which induced differentiation of 50% of the cells)
Protocol: as §1, §2, §3, §4, §5
Quantitation of differentiated cells was done by the biochemical method of nitroblue tetrazolum (NBT) reduction. One million HL-60 cells were pooled from replicate cultures, centrifuged at 220×g for 10 minutes, and resuspended in 1 ml of Ca^++ -Mg^++ -deficient phosphate buffered saline prepared by supplementing Ca^++ -Mg^++ -free phosphate buffered saline (PBS) to 20% v/v with heat-inactivated fetal bovine serum). Nitroblue tetrazolium was dissolved at 0.5 mg per ml in Ca^++ -Mg^++ -free PBS with gentle heating and frequent mixing. A stock solution of 1 mg tetradecanoyl phorbol acetate (TPA) per ml in ethanol, stored at -20°, was diluted 100-fold with Ca^++ -Mg^++ -free PBS to prepare a working solution. The test was done by adding 1 ml of NBT solution and 0.02 ml of the working TPA solution to the HL-60 cells. After mixing, the tubes were incubated in a 37° water bath for 25 minutes then transferred to ice. Undifferentiated and differentiated cells present in any sample were determined microscopically by surveying a minimum of 300 cells per sample. Cells without pigmented granules (clear cells) were judged to be undifferentiated while those containing greater than 3 blue-black formazan granules were scored as differentiated. Generally, differentiated cells were intensely pigmented clearly indicating the enzymatic conversion of NBT to formazan. Results are expressed as the percentage of differentiated cells present in any sample as calculated according to the formula: [formula] The results are also expressed as the concentration of compound which induced differentiation of 50% of the cells (ED50).

vitamin D deficient rats = conditions: 3 weeks
[7] = read-out: % Reduction in cell number
[8] = 8 days, from dose response curves

Structure (SMILES): C=C1CC[C@H](O)C/C1=C/C=C1\CCC[C@]2(C)[C@@H]([C@H](C)CC#CC(C)(C)O)CC[C@@H]12 [Compound C, 25-hydroxy-23-yne-cholecalciferol]
- inhibition at 0.1 µM [1, 7]: 0%
- inhibition at 1 µM [1, 7]: 31%
- inhibition at 3 µM [1, 7]: 79%
- IC50 [1]: 1500 nM
- % of 1,25-(OH)2 D3 Effect in Rat, intestinal calcium absorption [2]: 71%
- Competitive Binding to 1,25-(OH)2 D3 Receptors - % of 1,25-(OH)2 D3 Effect, chick intestine [3]: 0%
- % of 1,25-(OH)2 D3 Effect in Rat, bone calcium mobilization [4]: 0%
- Competitive Binding to 1,25-(OH)2 D3 Receptors - % of 1,25-(OH)2 D3 Effect, calf intestine [5]: 0%
- % Differentiated cells ([6]; 10 × 10^-8 M, 8 days): 5%
- % Differentiated cells ([6]; 100 × 10^-8 M, 8 days): 27%
- % Differentiated cells ([6]; 300 × 10^-8 M, 8 days): 95%
- EC50 [6]: 1500 nM

Structure (SMILES): C=C1CC[C@H](O)C/C1=C/C=C1\CCC[C@]2(C)[C@@H]([C@H](C)CC#CC(O)(C(F)(F)F)C(F)(F)F)CC[C@@H]12 [Compound D, 25-hydroxy-23-yne-26,26,26,27,27,27-hexafluorocholecalciferol]
- inhibition at 0.01 µM ([1]; 1 × 10^-8 M, 8 days, read-out: % Reduction in cell number): 0%
- inhibition at 0.1 µM ([1]; 10 × 10^-8 M, 8 days, read-out: % Reduction in cell number): 14%
- inhibition at 1 µM ([1]; 100 × 10^-8 M, 8 days, read-out: % Reduction in cell number): 77%
- IC50 [1, 8]: 250 nM
- % of 1,25-(OH)2 D3 Effect in Rat, intestinal calcium absorption [2]: 0%
- Competitive Binding to 1,25-(OH)2 D3 Receptors - % of 1,25-(OH)2 D3 Effect, chick intestine [3]: 0%
- % of 1,25-(OH)2 D3 Effect in Rat, bone calcium mobilization [4]: 11%
- Competitive Binding to 1,25-(OH)2 D3 Receptors - % of 1,25-(OH)2 D3 Effect, calf intestine [5]: 0%
- % Differentiated cells ([6]; 1 × 10^-8 M, 8 days): 6%
- % Differentiated cells ([6]; 10 × 10^-8 M, 8 days): 27%
- % Differentiated cells ([6]; 100 × 10^-8 M, 8 days): 99%
- EC50 [6, 8]: 200 nM

Structure (SMILES): C=C1/C(=C\C=C2/CCC[C@]3(C)[C@@H]([C@H](C)CCCC(C)(C)O)CC[C@@H]23)C[C@@H](O)C[C@@H]1O [1,25-(OH)2 D3, reference compound]
- Bone Mass (vitamin D deficient rats; daily dose 15 ng): 156 ± 16 mm^3 /cm^3
- Serum Ca^2+ (vitamin D deficient rats; daily dose 15 ng): 11.76 ± 0.16 mg/dL
- Serum PO4^2- (vitamin D deficient rats; daily dose 15 ng): 7.61 ± 0.31 mg/dL
- Bone Mass (vitamin D deficient rats; daily dose 60 ng): 296 ± 56 mm^3 /cm^3
- Serum Ca^2+ (vitamin D deficient rats; daily dose 60 ng): 11.92 ± 0.40 mg/dL
- Serum PO4^2- (vitamin D deficient rats; daily dose 60 ng): 6.58 ± 0.30 mg/dL
- % of 1,25-(OH)2 D3 Effect in Rat, intestinal calcium absorption [2]: 100%
- % of 1,25-(OH)2 D3 Effect in Rat, bone calcium mobilization [4]: 100%

Source: patent publication US4804502A, “Vitamin D compounds” (priority 1988, dated 1989)
